Measurements published in paper PMC9657321, “Identification of Boronate-Containing Diarylpyrimidine Derivatives as Novel HIV-1 Non-Nucleoside Reverse Transcriptase Inhibitors” (Molecules, 2022).

Columns and labels:
[1] = target: T1, recombinant wild-type HIV-1 RT enzyme (Human immunodeficiency virus type 1 group M subtype B, UniProt P03366); test: HIV-1 RT inhibition assay (ELISA, Roche RT assay kit); type: biochemical
T1 construct: recombinant wild-type HIV-1 RT enzyme; purchased Roche (Basel, Switzerland)
Method: The HIV-1 RT inhibition assay was performed by using an RT assay kit produced by Roche (Basel, Switzerland).
The biotin-labeled dNTPs were incorporated into the cDNA chain in the presence of RT and bound to streptavidin. The washing buffer was used to wash the unbound dNTPs and add the anti-DIG-POD to the MTPs.
The peroxide substrate (ABST) solution was added to the MTPs, when the unbound anti-DIG-PODs were washed out. […] The absorbance of the sample was determined at OD405 nm using a microtiter plate ELISA reader. The percentage inhibitory activity of RT inhibitors was calculated according to the following formula: % inhibition = [O.D. value with RT but without inhibitors − O.D. value with RT and inhibitors]/[O.D. value with RT and inhibitors − O.D. value without RT and inhibitors].

[2] = system: HIV-1 double-mutant strain RES056 (K103N/Y181C); test: microbe, parasite or virus in culture; type: cell-based; settings: for EC50: Human immunodeficiency virus 1, MT4, read-out: EC50 RES056; for RF RES056: ratio EC50(resistant strain)/EC50(wild-type strain); for SI RES056: selectivity index, ratio CC50/EC50, RES056
Method: (§1) All data were calculated using the median optical density (OD) value of three wells.

wild-type HIV-1 (IIIB) = test: microbe, parasite or virus in culture; type: cell-based; settings: for EC50: Human immunodeficiency virus 1, MT4, MT-4 cells, HIV-1 IIIB, MTT method; for RF IIIB: ratio EC50(resistant strain)/EC50(wild-type strain); for SI IIIB: selectivity index, ratio CC50/EC50, IIIB
Method: as §1

[3] = system: HIV-1 L100I mutant strain; test: microbe, parasite or virus in culture; type: cell-based; settings: for EC50: Human immunodeficiency virus 1, MT4, read-out: EC50 L100I; for SI L100I: ratio CC50/EC50, L100I; for RF L100I: ratio EC50 (resistant viral strain)/EC50 (wild-type viral strain)
Method: as §1

[4] = system: HIV-1 K103N mutant strain; test: microbe, parasite or virus in culture; type: cell-based; settings: for EC50: Human immunodeficiency virus 1, MT4, read-out: EC50 K103N, MT-4 cells, K103N, MTT method; for SI K103N: ratio CC50/EC50, K103N; for RF K103N: ratio EC50 (resistant viral strain)/EC50 (wild-type viral strain)
Method: as §1

[5] = system: HIV-1 Y181C mutant strain; test: microbe, parasite or virus in culture; type: cell-based; settings: for EC50: Human immunodeficiency virus 1, MT4, read-out: EC50 Y181C, MT-4 cells, Y181C, MTT method; for SI Y181C: ratio CC50/EC50, Y181C; for RF Y181C: ratio EC50 (resistant viral strain)/EC50 (wild-type viral strain)
Method: as §1

[6] = system: HIV-1 F227L + V106A mutant strain; test: microbe, parasite or virus in culture; type: cell-based; settings: for EC50: Human immunodeficiency virus 1, MT4, read-out: EC50 F227L + V106A; for SI F227L + V106A: ratio CC50/EC50, F227L + V106A; for RF F227L + V106A: ratio EC50 (resistant viral strain)/EC50 (wild-type viral strain)
Method: as §1

[7] = system: HIV-1 Y188L mutant strain; test: microbe, parasite or virus in culture; type: cell-based; settings: for EC50: Human immunodeficiency virus 1, MT4, read-out: EC50 Y188L; for SI Y188L: ratio CC50/EC50, Y188L; for RF Y188L: ratio EC50 (resistant viral strain)/EC50 (wild-type viral strain)
Method: as §1

[8] = system: HIV-1 E138K mutant strain; test: microbe, parasite or virus in culture; type: cell-based; settings: for EC50: Human immunodeficiency virus 1, MT4, read-out: EC50 E138K; for SI E138K: ratio CC50/EC50, E138K; for RF E138K: ratio EC50 (resistant viral strain)/EC50 (wild-type viral strain)
Method: as §1

[9] = Cytotoxicity in mock-infected MT-4 cells, MTT method; type: cell-based; settings: human
Method: The 3-(4,5-dimethylthiazol-2-yl)-2,5-diphenyltetrazolium bromide (MTT) method was used to evaluate the antiviral activity and cytotoxicity of the synthesized compounds as previously described. At the beginning of each experiment, stock solutions (10× final concentration) of test compounds were added in 25 μL volumes to two series of triplicate wells for allowing the simultaneous evaluation of their effects on mock- and HIV-infected cells. The serial 5-fold dilutions of the compounds were made in flat-bottomed 96-well microtiter trays directly, including untreated control HIV-1 and mock infected cell samples for each sample using a Biomek 3000 robot (Beckman Instruments, Fullerton, CA, USA). HIV-1 (IIIB) and mutant HIV-1 strains (RES056, F227L/V106A, L100I, K103N, E138K, Y181C, and Y188L) stock (50 μL at 100–300 CCID50) (50% cell culture infectious dose) or culture medium was added to either the infected or mock-infected wells of the microtiter tray. Mock-infected cells were used to evaluate the effect on uninfected cells to assess the cytotoxicity of the test compounds. Exponentially growing MT-4 cells were centrifuged for […] at 1000 rpm (Eppendorf 5424, Hamburg, Germany) and then the supernatant was discarded. The MT-4 cells were resuspended at 6 × 10^5 cells/mL and 50 μL aliquots were transferred to the microtiter tray wells. At 5 days after infection, the viability of mock- and HIV-infected cells was determined spectrophotometrically by means of MTT assay.
(§2) The MTT assay is based on the reduction of yellow-colored MTT (Acros Organics, Geel, Belgium) by mitochondrial dehydrogenase of metabolically active cells to form a blue-purple formazan. The absorbances were read in an eight-channel computer-controlled photometer at the wavelengths of 540 and 690 nm. All data were calculated using the median optical density (OD) value of three wells.

[10] = system: wild-type and mutant HIV-1 strains; test: Anti-HIV-1 activity in MT-4 cells, MTT method, panel of strains (range over strains); type: cell-based; settings: Human immunodeficiency virus 1, MT4, read-out: EC50 values over wild-type and a panel of single mutations
Method: […]. […] […].
The 3-(4,5-dimethylthiazol-2-yl)-2,5-diphenyltetrazolium bromide (MTT) method was used to evaluate the antiviral activity and cytotoxicity of the synthesized compounds as previously described. At the beginning of each experiment, stock solutions (10× final concentration) of test compounds were added in 25 μL volumes to two series of triplicate wells for allowing the simultaneous evaluation of their effects on mock- and HIV-infected cells. The serial 5-fold dilutions of the compounds were made in flat-bottomed 96-well microtiter trays directly, including untreated control HIV-1 and mock infected cell samples for each sample using a Biomek 3000 robot (Beckman Instruments, Fullerton, CA, USA). […] At 5 days after infection, the viability of mock- and HIV-infected cells was determined spectrophotometrically by means of MTT assay.
as §2

Structure (SMILES)	IC50 [1] [nM]	EC50 [2] [nM]	RF RES056 [2]	EC50 (wild-type HIV-1 (IIIB)) [nM]	RF IIIB (wild-type HIV-1 (IIIB))	EC50 [3] [nM]	SI L100I [3]	RF L100I [3]	EC50 [4] [nM]	SI K103N [4]	RF K103N [4]	SI Y181C [5]	RF Y181C [5]	EC50 [6] [nM]	RF F227L + V106A [6]	EC50 [7] [nM]	SI Y188L [7]	EC50 [8] [nM]	SI E138K [8]	RF E138K [8]	other results
Cc1cc(C#N)cc(C)c1Oc1nc(Nc2ccc(B3OC(C)(C)C(C)(C)O3)cc2)nc2c1COC2 [Compound 3c, 3,5-Dimethyl-4-((2-((4-(4,4,5,5-tetramethyl-1,3,2-dioxaborolan-2-yl)phenyl)amino) -5,7-dihydrofuro [3,4-d]pyrimidin-4-yl)oxy)benzonitrile]	228 ± 45	25800 ± 7930	503	51 ± 15	1.0	2430 ± 302	39	47.3	120 ± 19	792	2.3	22	85.1	9100 ± 2640	177.2	4520 ± 1540	21	130 ± 41	731	2.5	melting point: 149 to 151 °C; SI RES056 [2]: < 1; SI IIIB (wild-type HIV-1 (IIIB)): 1847; EC50 [5]: 4370 ± 2190 nM; SI F227L + V106A [6]: 10; RF Y188L [7]: 87.9; CC50 at 5 days [9]: 94800 ± 32200 nM
Cc1cc(/C=C/C#N)cc(C)c1Oc1nc(Nc2ccc(B3OC(C)(C)C(C)(C)O3)cc2)nc2ccsc12 [Compound 4a, (E)-3-(3,5-Dimethyl-4-((2-((4-(4,4,5,5-tetramethyl-1,3,2-dioxaborolan-2-yl)phenyl)amino)thieno [3,2-d]pyrimidin-4-yl)oxy)phenyl)acrylonitrile]	167 ± 31	> 238000	> 27516	9 ± 2	1.0	186 ± 32	> 1285	21.4	5 ± 6	> 47,170	0.6	> 368	74.8	> 1810	209.7	1610 ± 508	> 148	21 ± 7	> 11,261	2.4	fold more potent than NVP ([3]; L100I EC50, versus NVP): 3.3 fold; CC50 at 5 days [9]: > 238000 nM; EC50 [10]: 5 to 648 nM
Cc1cc(/C=C/C#N)cc(C)c1Oc1nc(Nc2ccc(B3OC(C)(C)C(C)(C)O3)cc2)nc2sccc12 [Compound 4b, (E)-3-(3,5-Dimethyl-4-((2-((4-(4,4,5,5-tetramethyl-1,3,2-dioxaborolan-2-yl)phenyl)amino)thieno [2,3-d]pyrimidin-4-yl)oxy)phenyl)acrylonitrile]	47 ± 1	2300 ± 660	224	10 ± 3	1.0	280 ± 55	79	27.4	8 ± 2	2866	0.8	33	65.9	3210 ± 1970	313.5	2520 ± 238	9	30 ± 9	732	3.0	fold more potent than 3b ([2]; RES056 EC50, versus 3b): 75 fold; SI RES056 [2]: 10; SI IIIB (wild-type HIV-1 (IIIB)): 2161; EC50 [5]: 675 ± 188 nM; SI F227L + V106A [6]: 7; RF Y188L [7]: 246.1; CC50 at 5 days [9]: 22100 ± 3690 nM
Cc1cc(/C=C/C#N)cc(C)c1Oc1nc(Nc2ccc(B3OC(C)(C)C(C)(C)O3)cc2)nc2c1COC2 [Compound 4c, (E)-3-(3,5-Dimethyl-4-((2-((4-(4,4,5,5-tetramethyl-1,3,2-dioxaborolan-2-yl)phenyl)amino)-5,7-dihydrofuro [3,4-d]pyrimidin-4-yl)oxy)phenyl)acrylonitrile]	200 ± 28	13900 ± 9320	1018	14 ± 6	1.0	553 ± 152	145	40.6	26 ± 5	3110	1.9	63	94.2	5880 ± 2520	431.5	3960 ± 894	20	39 ± 18	2036	2.9	melting point: 134 to 136 °C; SI RES056 [2]: 6; SI IIIB (wild-type HIV-1 (IIIB)): 5890; EC50 [5]: 1280 ± 489 nM; SI F227L + V106A [6]: 14; RF Y188L [7]: 290.3; CC50 at 5 days [9]: 80300 ± 31300 nM
